Measurements taken from the NIST ThermoML archive (doi:10.1016/j.jct.2005.02.003).

Experiment: molar heat capacity at constant pressure
Settings: 101.33 kPa

CC(C)COC(C)(C)C [isobutyl tert-butyl ether]
molar heat capacity at constant pressure [J/K/mol]
Settings	Crystal	Liquid
140.78 K	140.8	–
141.71 K	142	–
142.63 K	142.5	–
143.56 K	143.4	–
144.49 K	143.5	–
145.41 K	144.2	–
146.33 K	144.7	–
147.24 K	145.3	–
149.06 K	146.4	–
149.71 K	–	210
150 K	147.3	–
150.86 K	147.4	–
151.76 K	148.4	–
151.77 K	–	210.7
152.66 K	149	–
153.55 K	149.9	–
153.82 K	–	211.9
155.87 K	–	212.5
156.22 K	153.2	–
157.08 K	153.7	–
157.9 K	–	213.3
157.95 K	155.8	–
159.92 K	–	214
160 K	152.6	–
161.93 K	–	214.7
162.33 K	153.6	214.8
163.93 K	–	215.4
165.92 K	–	216.2
167.9 K	–	216.8
169.88 K	–	217.5
170 K	–	217.7
171.84 K	–	218.3
173.8 K	–	219.3
175.75 K	–	220.1
177.69 K	–	220.3
179.63 K	–	221.1
180 K	–	221.4
181.56 K	–	221.9
183.49 K	–	222.7
185.4 K	–	223.2
187.31 K	–	224.1
189.21 K	–	224.7
190 K	–	225
191.11 K	–	225.4
193 K	–	226
194.89 K	–	226.8
196.77 K	–	227.4
198.65 K	–	227.8
200 K	–	228.5
200.52 K	–	228.5
201.82 K	–	229.6
202.53 K	–	229.1
203.25 K	–	229.2
203.96 K	–	229.6
204.67 K	–	230.4
205.41 K	–	230.1
206.12 K	–	230.8
206.84 K	–	231.4
207.55 K	–	231.1
208.27 K	–	231.1
208.98 K	–	232.1
209.69 K	–	232
210 K	–	232.1
210.4 K	–	232.3
211.12 K	–	232.6
211.83 K	–	233
212.55 K	–	233.1
213.26 K	–	233.6
213.97 K	–	233.7
214.69 K	–	233.6
215.4 K	–	234.1
216.12 K	–	234.1
216.87 K	–	233.8
217.59 K	–	234.2
218.3 K	–	234.6
219.02 K	–	235.9
219.73 K	–	236
220 K	–	235.8
220.45 K	–	236.2
221.17 K	–	236
221.89 K	–	237
222.6 K	–	237
223.33 K	–	236.7
224.04 K	–	237.6
224.76 K	–	237.8
225.48 K	–	237.8
226.2 K	–	238
226.92 K	–	238.6
227.65 K	–	238.6
228.42 K	–	239.6
229.14 K	–	239.3
229.86 K	–	239.6
230 K	–	239.7
230.59 K	–	239.5
231.31 K	–	240.6
232.04 K	–	240.4
233.48 K	–	240.4
234.2 K	–	240.9
235.65 K	–	242
236.37 K	–	242.7
237.1 K	–	242.3
237.82 K	–	242.2
238.55 K	–	243.6
239.27 K	–	243.4
240 K	–	243.7
